Results from US12459951B2, “Compounds that interact with RAS superfamily proteins for treatment of cancers, inflammatory diseases, rasopathies, and fibrotic disease” (SHY Therapeutics, LLC, priority 2022, dated 2025).

Experiments:
Akt phosphorylation = experiment: Akt Phosphorylation Assay (western blot), Panc-1; assay type: cell-based, human; settings: at 10 μM, * = activation
How it was run: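 Panc-1 (KRas G12D) cells were treated with compound at 10 μM final (0.3% DMSO) for 6 h at 37 °C, or with serial dilutions for IC50. Cells were either serum-starved overnight in 0.5% FBS and then stimulated with 1.5 ng/ml EGF for 15 min, or kept in 10% FBS without stimulation. Akt Ser473 phosphorylation in lysates was read by western blot.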

KRas G12C mutant = experiment: Ras GTP Binding Domain Inhibition Assay (Ras Superfamily Assay); settings: 20 μM compound; for KRas G12C mutant + SOS: % inh.: with SOS; for KRas G12C mutant: % inh.: without SOS
How it was run: (§1)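 Ni-plate capture of His-tagged protein (10-30 μg/mL, o/n 4° C); cpd 20 μM or dilution series, 1% DMSO, 3 h RT ± Sos 556-1049 last h; 100 nM Cy-labelled GTP 45 min RT; 3× wash; fluorescence read.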

KRas Q61H mutant = experiment: as above; settings: 20 μM compound; for KRas Q61H mutant + SOS: % inh.: with SOS; for KRas Q61H mutant: % inh.: without SOS
How it was run: as §1

Rac-1 = biological target: T1, Rac-1 (Homo sapiens, UniProt P63000); experiment: as above; settings: read-out: Rac-1: % inh.
T1 construct: made in house
How it was run: as §1

KRas G12D mutant = experiment: as above; settings: 20 μM compound; for KRas G12D mutant + SOS: % inh.: with SOS; for KRas G12D mutant: % inh.: without SOS
How it was run: as §1

Rho-A = biological target: T2, Rho-A (Homo sapiens, UniProt P61586); experiment: as above; settings: read-out: Rho-A: % inh..
T2 construct: made in house
How it was run: as §1

KRas wild type = experiment: as above; settings: 20 μM compound; for KRas wild type + SOS: % inh.: with SOS; for KRas wild type: % inh.: without SOS
How it was run: as §1

T2 sequence (P61586 whole entry): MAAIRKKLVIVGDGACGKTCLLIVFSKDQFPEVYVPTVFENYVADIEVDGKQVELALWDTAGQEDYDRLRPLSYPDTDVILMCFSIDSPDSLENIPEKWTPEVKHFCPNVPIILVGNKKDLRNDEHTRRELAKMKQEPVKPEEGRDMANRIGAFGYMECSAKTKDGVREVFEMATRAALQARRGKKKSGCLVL

SMILES | KRas G12C mutant + SOS: % inh. (KRas G12C mutant) | KRas G12C mutant: % inh. (KRas G12C mutant) | KRas Q61H mutant + SOS: % inh. (KRas Q61H mutant) | KRas Q61H mutant: % inh. (KRas Q61H mutant) | inhibition at 20 µM (Rac-1) [%] | KRas G12D mutant + SOS: % inh. (KRas G12D mutant) | KRas G12D mutant: % inh. (KRas G12D mutant) | inhibition at 20 µM (Rho-A) [%] | KRas wild type + SOS: % inh. (KRas wild type) | KRas wild type: % inh. (KRas wild type) | % inh of Akt phosphorylation in Panc-1 (Akt phosphorylation)
COCCCNc1nc(-c2nccn2C)nn2cc(-c3cccc(OC)c3Cl)c(-c3ccccc3)c12 [Compound 30, 6-(2-Chloro-3-methoxyphenyl)-N-(3-methoxypropyl)-2-(1-methyl-1H-imidazol-2-yl)-5-phenylpyrrolo[2,1-f][1,2,4]triazin-4-amine] | 0 (0 = 0% inhibition) | A (A = 1-25% inhibition) | 0 (0 = 0% inhibition) | 0 (0 = 0% inhibition) | 0 | A (A = 1-25% inhibition) | 0 (0 = 0% inhibition) | 1 to 25 | 0 (0 = 0% inhibition) | A (A = 1-25% inhibition) | D (85-100% inhibition)
COc1cc(Nc2nc(-c3nccn3C)nn3cc(-c4ccncc4)c(C)c23)ncn1 [Compound 49, N-(6-Methoxypyrimidin-4-yl)-5-methyl-2-(1-methyl-1H-imidazol-2-yl)-6-(pyridin-4-yl)pyrrolo[2,1-f][1,2,4]triazin-4-amine] | 0 (0 = 0% inhibition) | A (A = 1-25% inhibition) | D (D = 76-100% inhibition) | D (D = 76-100% inhibition) | 26 to 49 | B (B = 26-49% inhibition) | C (C = 50-75% inhibition) | 26 to 49 | 0 (0 = 0% inhibition) | B (B = 26-49% inhibition) | D* (85-100% activation)
CCn1ccc(-c2cn3nc(-c4nccn4C)nc(Nc4cc(OC)ncn4)c3c2C)n1 [Compound 64, 6-(1-Ethyl-1H-pyrazol-3-yl)-N-(6-methoxypyrimidin-4-yl)-5-methyl-2-(1-methyl-1H-imidazol-2-yl)pyrrolo[2,1-f][1,2,4]triazin-4-amine] | C (C = 50-75% inhibition) | D (D = 76-100% inhibition) | D (D = 76-100% inhibition) | D (D = 76-100% inhibition) | 76 to 100 | D (D = 76-100% inhibition) | D (D = 76-100% inhibition) | 76 to 100 | D (D = 76-100% inhibition) | D (D = 76-100% inhibition) | D* (85-100% activation)
COCCNc1nc(-c2nccn2C)nn2cc(-c3ccn(C(C)C)n3)c(C(C)C)c12 [Compound 35, 5-Isopropyl-6-(1-isopropyl-1H-pyrazol-3-yl)-N-(2-methoxyethyl)-2-(1-methyl-1H-imidazol-2-yl)pyrrolo[2,1-f][1,2,4]triazin-4-amine] | 0 (0 = 0% inhibition) | A (A = 1-25% inhibition) | A (A = 1-25% inhibition) | A (A = 1-25% inhibition) | 0 | 0 (0 = 0% inhibition) | 0 (0 = 0% inhibition) | 1 to 25 | A (A = 1-25% inhibition) | A (A = 1-25% inhibition) | 0 (0% inhibition)
COc1cccc(-c2cn3nc(-c4nccn4C)nc(N[C@H]4C[C@H](OC)C4)c3c2-c2ccccn2)c1F [Compound 45, 6-(2-Fluoro-3-methoxyphenyl)-N-((1r,3r)-3-methoxycyclobutyl)-2-(1-methyl-1H-imidazol-2-yl)-5-(pyridin-2-yl)pyrrolo[2,1-f][1,2,4]triazin-4-amine] | A (A = 1-25% inhibition) | B (B = 26-49% inhibition) | D (D = 76-100% inhibition) | D (D = 76-100% inhibition) | 50 to 75 | A (A = 1-25% inhibition) | B (B = 26-49% inhibition) | 50 to 75 | B (B = 26-49% inhibition) | B (B = 26-49% inhibition) | 0 (0% inhibition)

More lines, main results first:

KRas G12C mutant + SOS: % inh. (KRas G12C mutant) | KRas G12C mutant: % inh. (KRas G12C mutant) | KRas Q61H mutant + SOS: % inh. (KRas Q61H mutant) | KRas Q61H mutant: % inh. (KRas Q61H mutant) | inhibition at 20 µM (Rac-1) [%] | KRas G12D mutant + SOS: % inh. (KRas G12D mutant) | KRas G12D mutant: % inh. (KRas G12D mutant) | inhibition at 20 µM (Rho-A) [%] | KRas wild type + SOS: % inh. (KRas wild type) | KRas wild type: % inh. (KRas wild type) | SMILES | % inh of Akt phosphorylation in Panc-1 (Akt phosphorylation)
0 (0 = 0% inhibition) | 0 (0 = 0% inhibition) | B (B = 26-49% inhibition) | B (B = 26-49% inhibition) | 1 to 25 | 0 (0 = 0% inhibition) | A (A = 1-25% inhibition) | 1 to 25 | 0 (0 = 0% inhibition) | 0 (0 = 0% inhibition) | COc1cccc(-c2cn3nc(-c4nccn4C)nc(N[C@@H]4CC[C@@H](OC)C4)c3c2-c2ccccc2)c1F (racemic) [Compound 43, rac 6-(2-Fluoro-3-methoxyphenyl)-N-((1R,3R)-3-methoxycyclopentyl)-2-(1-methyl-1H-imidazol-2-yl)-5-phenylpyrrolo[2,1-f][1,2,4]triazin-4-amine] | B (26-49% inhibition)
A (A = 1-25% inhibition) | A (A = 1-25% inhibition) | A (A = 1-25% inhibition) | A (A = 1-25% inhibition) | 1 to 25 | A (A = 1-25% inhibition) | A (A = 1-25% inhibition) | 1 to 25 | A (A = 1-25% inhibition) | A (A = 1-25% inhibition) | COCC1CCN(c2nc(-c3ccccn3)nn3cc(-c4ccn(C(C)C)n4)c(-c4ccccc4)c23)C1 (racemic) [Compound 25, rac 6-(1-Isopropyl-1H-pyrazol-3-yl)-4-(3-(methoxymethyl)pyrrolidin-1-yl)-5-phenyl-2-(pyridin-2-yl)pyrrolo[2,1-f][1,2,4]triazine] | D (85-100% inhibition)
0 (0 = 0% inhibition) | A (A = 1-25% inhibition) | 0 (0 = 0% inhibition) | A (A = 1-25% inhibition) | 1 to 25 | 0 (0 = 0% inhibition) | A (A = 1-25% inhibition) | 1 to 25 | A (A = 1-25% inhibition) | 0 (0 = 0% inhibition) | COc1cccc(Nc2nc(-c3nccn3C)nn3cc(-c4ccn(C(C)C)n4)c(-c4ccccc4)c23)n1 [Compound 23, 6-(1-Isopropyl-1H-pyrazol-3-yl)-N-(6-methoxypyridin-2-yl)-2-(1-methyl-1H-imidazol-2-yl)-5-phenylpyrrolo[2,1-f][1,2,4]triazin-4-amine] | D (85-100% inhibition)
